Earlier results as cited in patent US6045829A, “Nanocrystalline formulations of human immunodeficiency virus (HIV) protease inhibitors using cellulosic surface stabilizers” (Elan Pharma International Limited, priority 1997, dated 2000).

Tested on: not given
Conditions: in vivo, po

Row | oral bioavailability | Compound
1 | low oral bioavailability | CC(C)c1nc(CN(C)C(=O)N[C@H](C(=O)N[C@@H](Cc2ccccc2)C[C@H](O)[C@H](Cc2ccccc2)NC(=O)OCc2cncs2)C(C)C)cs1 [ABT-538]
2 | low oral bioavailability | Cc1c(O)cccc1C(=O)N[C@@H](CSc1ccccc1)[C@H](O)CN1C[C@H]2CCCC[C@H]2C[C@H]1C(=O)NC(C)(C)C [AG1343]
3 | low oral bioavailability | Nc1cccc(CN2C(=O)N(Cc3cccc(N)c3)[C@H](Cc3ccccc3)[C@H](O)[C@@H](O)[C@H]2Cc2ccccc2)c1 [DMP-450]
4 | low oral bioavailability | CC(C)(C)NC(=O)[C@@H]1CN(Cc2cccnc2)CCN1C[C@@H](O)C[C@@H](Cc1ccccc1)C(=O)N[C@H]1c2ccccc2C[C@H]1O [MK-639, N-(2-(R)-hydroxy-1(S)-indanyl)-2(R)-phenylmethyl-4-(S)-hydroxy-5-(1-(4-(3-pyridylmethyl)-2(S)-N'-(t-butylcarboxamido)-piperazinyl))-pentaneamide]
5 | low oral bioavailability | CC(C)CN(C[C@@H](O)[C@H](Cc1ccccc1)NC(=O)O[C@H]1CCOC1)S(=O)(=O)c1ccc(N)cc1 [VX-478]
6 | low oral bioavailability | CC(C)(C)NC(=O)[C@@H]1C[C@@H]2CCCC[C@@H]2CN1C[C@@H](O)[C@H](Cc1ccccc1)NC(=O)[C@H](CC(N)=O)NC(=O)c1ccc2ccccc2n1 [saquinavir]

Same assay, conditions: oral

Row | Compound | oral bioavailability
7 | CSC[C@H](NC(=O)COc1cccc2cnccc12)C(=O)N[C@@H](Cc1ccccc1)[C@H](O)C(=O)N1CSC[C@H]1C(=O)NC(C)(C)C [KNI-272] | low oral bioavailability
8 | N#Cc1ccc(S(=O)(=O)Nc2cccc(C(c3c(O)c4c(oc3=O)CCCCCC4)C3CC3)c2)cc1 (stereo not shown) [U-103,017] | low oral bioavailability

Tested on: HIV reverse transcriptase (RT)
Conditions: in vivo

Row | Compound | effectiveness in treating HIV infection
9 | O[C@H](CS)[C@H](O)CS (racemic) [ddT, dithiothreitol] | only modestly effective
10 | O=c1[nH]cnc2c1ncn2[C@H]1CC[C@@H](CO)O1 [ddI, didanosine] | only modestly effective

Same assay, conditions: interfere with cellular enzymes similar to the HIV viral enzyme

Row | Compound | side effects
11 | O[C@H](CS)[C@H](O)CS (racemic) [ddT, dithiothreitol] | severe side effects
12 | Cc1cn([C@H]2C[C@H](N=[N+]=[N-])[C@@H](CO)O2)c(=O)[nH]c1=O [AZT, azidothymidine] | severe side effects
13 | O=c1[nH]cnc2c1ncn2[C@H]1CC[C@@H](CO)O1 [ddI, didanosine] | severe side effects
